Reference: patent US9708314B2, “Heterocyclic amide compound” (NISSAN CHEMICAL INDUSTRIES, LTD., priority 2013, dated 2017)

Legend:
Format in all cases: in vivo
[1] = tested on: Beta vulgaris ssp. vulgaris; assay: Test Example 4: effect on crop by application to foliage (diluvial soil, plastic box); conditions: application to foliage, application herbicide amount 320 g/ha
Method in brief: (§1)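 Greenhouse plants (25° C. to 30° C., 14 d, diluvial soil) receive a foliar spray of water-diluted emulsifiable formulation at defined g/ha. Grading after 3 weeks uses a six-step herbicidal-ratio scale, with 4 covering 70% to <90% and 1 covering 5% to <20%.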

Glycine max = assay: as above; conditions: application to foliage, application herbicide amount 320 g/ha
Method in brief: as §1

Triticum aestivum = assay: as above; conditions: application to foliage, application herbicide amount 320 g/ha
Method in brief: as §1

Brassica campestris L. = assay: as above; conditions: application to foliage, application herbicide amount 320 g/ha
Method in brief: as §1

Zea mays = assay: as above; conditions: application to foliage, application herbicide amount 320 g/ha
Method in brief: as §1

[2] = tested on: directly sowed Oryza sativa; assay: as above; conditions: application to foliage, application herbicide amount 320 g/ha
Method in brief: as §1

Scirpus juncoides = assay: Test Example 2: herbicidal activity, application during weed generation in submerged conditions; conditions: Eighteenth Table; application herbicide amount 320 g/ha
Method in brief: (§2)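 Seeds were sown together in alluvial soil kept under 4 cm of water and grown at 25 °C to 30 °C. Once plants reached the one- to two-leaf stage, the diluted emulsion was applied to the water surface at a predetermined g/ha amount, and effects were rated 0–5 after three weeks.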

[3] = tested on: Echinochloa oryzacola Vasing.; assay: as above; conditions: Eighteenth Table; application herbicide amount 320 g/ha
Method in brief: as §2

Monochoria vaginalis = assay: as above; conditions: Eighteenth Table; application herbicide amount 320 g/ha
Method in brief: as §2

Lolium multiflorum Lam. = assay: Test Example 4: herbicidal effect by application to foliage (diluvial soil, plastic box); conditions: application to foliage, application herbicide amount 320 g/ha
Method in brief: as §1

Setaria viridis = assay: as above; conditions: application to foliage, application herbicide amount 320 g/ha
Method in brief: as §1

Chenopodium album = assay: as above; conditions: application to foliage, application herbicide amount 320 g/ha
Method in brief: as §1

Abutilon theophrasti = assay: as above; conditions: application to foliage, application herbicide amount 320 g/ha
Method in brief: as §1

Avena fatua = assay: as above; conditions: application to foliage, application herbicide amount 320 g/ha
Method in brief: as §1

[4] = tested on: Echinochloa crus-galli var. crus-galli; assay: as above; conditions: application to foliage, application herbicide amount 320 g/ha
Method in brief: as §1

Stellaria media = assay: as above; conditions: application to foliage, application herbicide amount 320 g/ha
Method in brief: as §1

Amaranthus retroflexus = assay: as above; conditions: application to foliage, application herbicide amount 320 g/ha
Method in brief: as §1

Alopecurus myosuroides = assay: as above; conditions: application to foliage, application herbicide amount 320 g/ha
Method in brief: as §1

Apera spica-venti. = assay: as above; conditions: application to foliage, application herbicide amount 320 g/ha
Method in brief: as §1

Galium spurium = assay: as above; conditions: application to foliage, application herbicide amount 320 g/ha
Method in brief: as §1

Digitaria ciliaris = assay: as above; conditions: application to foliage, application herbicide amount 320 g/ha
Method in brief: as §1

Veronica persica = assay: as above; conditions: application to foliage, application herbicide amount 320 g/ha
Method in brief: as §1

SMILES	f: effect on crop, Beta vulgaris ssp. vulgaris [1]	d: effect on crop, Glycine max (Glycine max)	e: effect on crop, Triticum aestivum (Triticum aestivum)	g: effect on crop, Brassica campestris L. (Brassica campestris L.)	c: effect on crop, Zea mays (Zea mays)	b: effect on crop, directly sowed Oryza sativa [2]	B (Scirpus juncoides) herbicidal ratio grade (Scirpus juncoides)	A (Echinochloa oryzicola Vasing.) herbicidal ratio grade [3]	C (Monochoria vaginalis) herbicidal ratio grade (Monochoria vaginalis)	K: herbicidal effect on Lolium multiflorum Lam. (Lolium multiflorum Lam.)	G: herbicidal effect on Setaria viridis (Setaria viridis)	O: herbicidal effect on Chenopodium album (Chenopodium album)	M: herbicidal effect on Abutilon theophrasti (Abutilon theophrasti)	I: herbicidal effect on Avena fatua (Avena fatua)	H: herbicidal effect on Echinochloa crus-galli var. crus-galli [4]	P: herbicidal effect on Stellaria media (Stellaria media)	N: herbicidal effect on Amaranthus retroflexus (Amaranthus retroflexus)	J: herbicidal effect on Alopecurus myosuroides (Alopecurus myosuroides)	L: herbicidal effect on Apera spica-venti. (Apera spica-venti.)	Q: herbicidal effect on Galium spurium (Galium spurium)	also measured
C=CCN(C)c1nnc2c(C(=O)Nc3nnco3)ccc(C(F)(F)F)n12 [1-172]	5 (Herbicidal ratio of 90% or more (almost completely withered))	4 (Herbicidal ratio of 70% or more and less than 90%)	1 (Herbicidal ratio of 5% or more and less than 20%)	4 (Herbicidal ratio of 70% or more and less than 90%)	0 (Herbicidal ratio of 5% or less (almost no effect))	3 (Herbicidal ratio of 40% or more and less than 70%)	4 (Herbicidal ratio of 70% or more and less than 90%)	3 (Herbicidal ratio of 40% or more and less than 70%)	3 (Herbicidal ratio of 40% or more and less than 70%)	1 (Herbicidal ratio of 5% or more and less than 20%)	4 (Herbicidal ratio of 70% or more and less than 90%)	5 (Herbicidal ratio of 90% or more (almost completely withered))	5 (Herbicidal ratio of 90% or more (almost completely withered))	2 (Herbicidal ratio of 20% or more and less than 40%)	5 (Herbicidal ratio of 90% or more (almost completely withered))	5 (Herbicidal ratio of 90% or more (almost completely withered))	5 (Herbicidal ratio of 90% or more (almost completely withered))	1 (Herbicidal ratio of 5% or more and less than 20%)	1 (Herbicidal ratio of 5% or more and less than 20%)	4 (Herbicidal ratio of 70% or more and less than 90%)	F: herbicidal effect on Digitaria ciliaris (Digitaria ciliaris): 5 (Herbicidal ratio of 90% or more (almost completely withered)); R: herbicidal effect on Veronica persica (Veronica persica): 4 (Herbicidal ratio of 70% or more and less than 90%)
Cn1nnnc1NC(=O)c1ccc(C(F)(F)F)n2cnnc12 [2-001]	5 (Herbicidal ratio of 90% or more (almost completely withered))	2 (Herbicidal ratio of 20% or more and less than 40%)	0 (Herbicidal ratio of 5% or less (almost no effect))	4 (Herbicidal ratio of 70% or more and less than 90%)	0 (Herbicidal ratio of 5% or less (almost no effect))	0 (Herbicidal ratio of 5% or less (almost no effect))	2 (Herbicidal ratio of 20% or more and less than 40%)	2 (Herbicidal ratio of 20% or more and less than 40%)	3 (Herbicidal ratio of 40% or more and less than 70%)	1 (Herbicidal ratio of 5% or more and less than 20%)	0 (Herbicidal ratio of 5% or less (almost no effect))	5 (Herbicidal ratio of 90% or more (almost completely withered))	5 (Herbicidal ratio of 90% or more (almost completely withered))	1 (Herbicidal ratio of 5% or more and less than 20%)	4 (Herbicidal ratio of 70% or more and less than 90%)	5 (Herbicidal ratio of 90% or more (almost completely withered))	5 (Herbicidal ratio of 90% or more (almost completely withered))	0 (Herbicidal ratio of 5% or less (almost no effect))	0 (Herbicidal ratio of 5% or less (almost no effect))	4 (Herbicidal ratio of 70% or more and less than 90%)	F: herbicidal effect on Digitaria ciliaris (Digitaria ciliaris): 3 (Herbicidal ratio of 40% or more and less than 70%); R: herbicidal effect on Veronica persica (Veronica persica): 5 (Herbicidal ratio of 90% or more (almost completely withered))
Cc1nnc2c(C(=O)Nc3nnnn3C)ccc(C(F)(F)F)n12 [2-002]	5 (Herbicidal ratio of 90% or more (almost completely withered))	3 (Herbicidal ratio of 40% or more and less than 70%)	1 (Herbicidal ratio of 5% or more and less than 20%)	4 (Herbicidal ratio of 70% or more and less than 90%)	0 (Herbicidal ratio of 5% or less (almost no effect))	2 (Herbicidal ratio of 20% or more and less than 40%)	1 (Herbicidal ratio of 5% or more and less than 20%)	2 (Herbicidal ratio of 20% or more and less than 40%)	2 (Herbicidal ratio of 20% or more and less than 40%)	1 (Herbicidal ratio of 5% or more and less than 20%)	3 (Herbicidal ratio of 40% or more and less than 70%)	5 (Herbicidal ratio of 90% or more (almost completely withered))	5 (Herbicidal ratio of 90% or more (almost completely withered))	3 (Herbicidal ratio of 40% or more and less than 70%)	5 (Herbicidal ratio of 90% or more (almost completely withered))	5 (Herbicidal ratio of 90% or more (almost completely withered))	5 (Herbicidal ratio of 90% or more (almost completely withered))	1 (Herbicidal ratio of 5% or more and less than 20%)	1 (Herbicidal ratio of 5% or more and less than 20%)	4 (Herbicidal ratio of 70% or more and less than 90%)	F: herbicidal effect on Digitaria ciliaris (Digitaria ciliaris): 4 (Herbicidal ratio of 70% or more and less than 90%); R: herbicidal effect on Veronica persica (Veronica persica): 5 (Herbicidal ratio of 90% or more (almost completely withered))
CC(C)c1nnc2c(C(=O)Nc3nnnn3C)ccc(C(F)(F)F)n12 [2-003]	5 (Herbicidal ratio of 90% or more (almost completely withered))	4 (Herbicidal ratio of 70% or more and less than 90%)	3 (Herbicidal ratio of 40% or more and less than 70%)	5 (Herbicidal ratio of 90% or more (almost completely withered))	1 (Herbicidal ratio of 5% or more and less than 20%)	4 (Herbicidal ratio of 70% or more and less than 90%)	3 (Herbicidal ratio of 40% or more and less than 70%)	5 (Herbicidal ratio of 90% or more (almost completely withered))	4 (Herbicidal ratio of 70% or more and less than 90%)	3 (Herbicidal ratio of 40% or more and less than 70%)	5 (Herbicidal ratio of 90% or more (almost completely withered))	5 (Herbicidal ratio of 90% or more (almost completely withered))	5 (Herbicidal ratio of 90% or more (almost completely withered))	3 (Herbicidal ratio of 40% or more and less than 70%)	5 (Herbicidal ratio of 90% or more (almost completely withered))	5 (Herbicidal ratio of 90% or more (almost completely withered))	5 (Herbicidal ratio of 90% or more (almost completely withered))	3 (Herbicidal ratio of 40% or more and less than 70%)	5 (Herbicidal ratio of 90% or more (almost completely withered))	4 (Herbicidal ratio of 70% or more and less than 90%)	F: herbicidal effect on Digitaria ciliaris (Digitaria ciliaris): 5 (Herbicidal ratio of 90% or more (almost completely withered)); R: herbicidal effect on Veronica persica (Veronica persica): 5 (Herbicidal ratio of 90% or more (almost completely withered))
